Key:
B16 murine melanoma [1] = test: Tumor growth inhibition, effect of dose, B16 model; format: in vivo, C57B1/6 mice; conditions: 20 mg/kg or 50 mg/kg, single injection; one week later
Experimental: (§1) FIG. 2: Effect of dose of free or liposomal PLP on tumor growth in B16- or C26-bearing mice. Mice received a single injection with the indicated dose and formulation of PLP on the day tumors became palpable. Tumor volume one week later is reported. Mean±S.D. N=5 mice/experimental group;
(§2) B16 murine melanoma and C26 murine colon carcinoma cells were cultured at 37° C. in a 5% CO2-containing humidified atmosphere in DMEM medium (Gibco, Breda, The Netherlands) containing 10% (v/v) fetal calf serum supplemented with 2 mM L-glutamine, 100 IU/ml penicillin, 100 μg/ml streptomycin and 0.25 μg/ml amphotericin B (Gibco).
(§3) Tissue distribution of ^111In-labeled PEG liposomes in tumor-bearing mice. 1×10^5 B 16 or C26 cells were inoculated subcutaneously in the flank of C57B1/6 of Balb/c mice, respectively. […] At 6 hours and 24 hours after injection, animals were sacrificed, a blood sample was taken, and tumor, lung, liver, spleen and kidneys were dissected, weighed and radioactivity was counted. […]
(§4) Mice received a single intravenous injection of an indicated dose of free PLP or liposomal PLP at the time when the tumor became palpable. At seven days after treatment, tumor size was measured and tumor volume calculated according to the equation V=0.52×a^2×b, wherein a is the smallest and b is the largest superficial diameter.

[2] = test system: C26 murine colon carcinoma; test: Tumor growth inhibition, effect of dose, C26 model; format: in vivo, Balb/c mice; conditions: 20 mg/kg or 50 mg/kg, single injection; one week later
Experimental: as §1, §2, §3, §4

B16 murine melanoma [3] = test: Tumor growth inhibition, effect of tumor size (time of injection), B16 model; format: in vivo, C57B1/6 mice
Experimental: (§5) FIG. 3: Effect of tumor size on anti-tumor effects of free or liposomal PLP in B16- or C26-bearing mice. Mice received either single or multiple injections with 20 mg/kg PLP of the indicated formulations. Arrows indicate treatment. Mean±S.D. is reported. N=5 mice/experimental group; and
as §2
(§6) As a reference, B16F10 tumors became palpable around seven days and C26 tumors around eleven days after tumor cell inoculation. Tumor size was measured regularly and tumor volume was calculated as described above.
(§7) To determine the effect of time of injection of free or liposomal PLP on tumor growth inhibition, the formulations were injected at a dose of 20 mg/kg at day 1, 7 and 14 or single injection at day 7 or day 14. See, in this light, FIG. 3 showing the results.

[4] = test system: C26 murine colon carcinoma; test: Tumor growth inhibition, effect of tumor size (time of injection), C26 model; format: in vivo, Balb/c mice
Experimental: as §5, §2, §6, §7

[5] = single injection 20 mg/kg at day 7

prednisolone disodium phosphate [free PLP]
tumor volume compared to buffer-treated control animals (B16 murine melanoma [1]): did not result in significantly different tumor volumes
tumor volume compared to buffer-treated control animals [2]: did not result in significantly different tumor volumes
tumor growth inhibition between day 1 and day 7 (B16 murine melanoma [3]; 20 mg/kg i.v. at day 1): Neither liposomal PLP nor free PLP inhibited tumor growth
tumor growth inhibition as compared to controls, between day 7 and day 14 (B16 murine melanoma [3]; 20 mg/kg i.v. at day 1 and second injection at day 7, p<0.05): did not reduce tumor volume
significantly smaller tumor volume after single injection (B16 murine melanoma [3]; [5]): only seen after treatment with liposomal PLP
tumor growth inhibition between day 1 and day 7 ([4]; 20 mg/kg i.v. at day 1): Neither liposomal PLP nor free PLP inhibited tumor growth
tumor growth inhibition, multiple injections ([4]; 20 mg/kg i.v. at day 1, 7 and 14): did not inhibit tumor growth
significance of tumor volume compared to controls [4, 5]: not significantly smaller with either treatment
